Measured values as given in patent US12552775B2, “Compounds and uses thereof” (Foghorn Therapeutics Inc., priority 2020, dated 2026).

Experiments:
[1] = target: T1, HiBit-BRG1 fusion protein (Homo sapiens, UniProt P51532); assay: HiBiT-BRG1 cell-based degradation assay (Nano-Glo HiBiT Lytic Detection, 24 h); details: stable HeLa cell line expressing HiBit-BRG1 and LgBit, top dose 30 μM, read-out: BRG1 HiBit Degradation Maximum (%)
T1 construct: expressed in transfected cells
Protocol: (§1) Procedure: A stable HeLa cell line expressing HiBiT-BRM was generated. On day 0, 5000 cells were seeded in 40 μL of media into each well of 384-well cell culture plates. On day 1, cells were treated with 120 nL DMSO or 120 nL of 3-fold serially DMSO-diluted compounds (10 points in duplicate with 30 μM as final top dose). Subsequently plates were incubated for 24 h in a standard tissue culture incubator and equilibrated at room temperature for 15 minutes. Nano-Glo HiBiT Lytic Detection System (Promega N3050) reagent was freshly prepared and 20 ul was added to each well. Upon addition of this LgBit-containing reagent, the HiBiT and LgBiT proteins associate to form the luminescent NanoBiT luciferase. The plates were shaken for 10 minutes at room temperature and the bioluminescence read using an EnVision plate reader (PerkinElmer).
For measurement of BRG1 degradation, a stable HeLa cell line expressing HiBit-BRG1 and LgBit was generated. The same protocol as above was then followed.
(§2) The degradation % was calculated using the following formula: % degradation=100%−100%×(Lumsample−LumLC)/(LumHC−LumLC). DMSO treated cells are employed as High Control (HC) and 2 μM of a known BRM/BRG1 degrader standard treated cells are employed as Low Control (LC).

[2] = target: T2, HiBit-BRM fusion protein (Homo sapiens, UniProt P51531); assay: HiBiT-BRM cell-based degradation assay (Nano-Glo HiBiT Lytic Detection, 24 h); details: stable HeLa cell line expressing HiBiT-BRM, top dose 30 μM
T2 construct: expressed in transfected cells
T2 sequence (P51531 whole entry, the tested form may be a part): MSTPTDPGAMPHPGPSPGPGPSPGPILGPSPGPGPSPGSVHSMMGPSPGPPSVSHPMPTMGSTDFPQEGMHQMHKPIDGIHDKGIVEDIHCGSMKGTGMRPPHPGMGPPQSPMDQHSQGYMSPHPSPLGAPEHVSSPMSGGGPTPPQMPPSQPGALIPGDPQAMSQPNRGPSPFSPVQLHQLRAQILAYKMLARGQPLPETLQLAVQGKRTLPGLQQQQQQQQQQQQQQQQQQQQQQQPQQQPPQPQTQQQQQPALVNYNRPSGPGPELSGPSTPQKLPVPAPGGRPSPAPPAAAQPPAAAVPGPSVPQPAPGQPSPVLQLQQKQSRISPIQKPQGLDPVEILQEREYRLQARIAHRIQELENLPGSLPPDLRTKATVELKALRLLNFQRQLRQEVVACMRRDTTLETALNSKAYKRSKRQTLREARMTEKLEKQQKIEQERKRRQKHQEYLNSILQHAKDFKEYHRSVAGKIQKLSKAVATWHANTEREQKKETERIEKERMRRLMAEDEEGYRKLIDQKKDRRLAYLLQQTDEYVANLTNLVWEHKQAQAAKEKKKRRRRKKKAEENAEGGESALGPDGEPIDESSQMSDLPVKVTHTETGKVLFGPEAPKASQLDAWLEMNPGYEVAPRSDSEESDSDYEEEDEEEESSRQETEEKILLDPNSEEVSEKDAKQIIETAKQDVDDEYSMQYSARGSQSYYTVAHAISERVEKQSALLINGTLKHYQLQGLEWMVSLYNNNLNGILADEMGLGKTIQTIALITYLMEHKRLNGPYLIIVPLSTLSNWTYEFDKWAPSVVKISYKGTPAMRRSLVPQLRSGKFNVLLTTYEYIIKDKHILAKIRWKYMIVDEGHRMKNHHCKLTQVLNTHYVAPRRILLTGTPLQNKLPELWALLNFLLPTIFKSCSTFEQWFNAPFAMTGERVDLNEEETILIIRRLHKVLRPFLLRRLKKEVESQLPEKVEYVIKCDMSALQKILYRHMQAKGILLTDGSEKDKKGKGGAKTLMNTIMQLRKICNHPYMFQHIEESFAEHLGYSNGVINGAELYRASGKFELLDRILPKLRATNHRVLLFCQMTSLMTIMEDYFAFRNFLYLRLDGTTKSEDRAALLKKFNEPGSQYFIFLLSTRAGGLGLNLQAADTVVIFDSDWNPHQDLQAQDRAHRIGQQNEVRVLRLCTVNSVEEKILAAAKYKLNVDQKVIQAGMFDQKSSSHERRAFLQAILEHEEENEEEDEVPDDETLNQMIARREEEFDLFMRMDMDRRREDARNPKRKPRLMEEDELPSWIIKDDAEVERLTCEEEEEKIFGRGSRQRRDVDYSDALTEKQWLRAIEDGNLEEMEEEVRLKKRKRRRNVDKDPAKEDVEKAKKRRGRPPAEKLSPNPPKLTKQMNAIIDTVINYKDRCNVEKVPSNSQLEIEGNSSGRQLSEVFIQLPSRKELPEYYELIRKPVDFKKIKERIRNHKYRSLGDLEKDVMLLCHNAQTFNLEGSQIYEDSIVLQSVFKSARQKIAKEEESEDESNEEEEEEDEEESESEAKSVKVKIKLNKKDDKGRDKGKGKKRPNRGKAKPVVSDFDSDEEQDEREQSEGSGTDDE
Protocol: as §1, §2

T1 sequence (P51532 whole entry, the tested form may be a part): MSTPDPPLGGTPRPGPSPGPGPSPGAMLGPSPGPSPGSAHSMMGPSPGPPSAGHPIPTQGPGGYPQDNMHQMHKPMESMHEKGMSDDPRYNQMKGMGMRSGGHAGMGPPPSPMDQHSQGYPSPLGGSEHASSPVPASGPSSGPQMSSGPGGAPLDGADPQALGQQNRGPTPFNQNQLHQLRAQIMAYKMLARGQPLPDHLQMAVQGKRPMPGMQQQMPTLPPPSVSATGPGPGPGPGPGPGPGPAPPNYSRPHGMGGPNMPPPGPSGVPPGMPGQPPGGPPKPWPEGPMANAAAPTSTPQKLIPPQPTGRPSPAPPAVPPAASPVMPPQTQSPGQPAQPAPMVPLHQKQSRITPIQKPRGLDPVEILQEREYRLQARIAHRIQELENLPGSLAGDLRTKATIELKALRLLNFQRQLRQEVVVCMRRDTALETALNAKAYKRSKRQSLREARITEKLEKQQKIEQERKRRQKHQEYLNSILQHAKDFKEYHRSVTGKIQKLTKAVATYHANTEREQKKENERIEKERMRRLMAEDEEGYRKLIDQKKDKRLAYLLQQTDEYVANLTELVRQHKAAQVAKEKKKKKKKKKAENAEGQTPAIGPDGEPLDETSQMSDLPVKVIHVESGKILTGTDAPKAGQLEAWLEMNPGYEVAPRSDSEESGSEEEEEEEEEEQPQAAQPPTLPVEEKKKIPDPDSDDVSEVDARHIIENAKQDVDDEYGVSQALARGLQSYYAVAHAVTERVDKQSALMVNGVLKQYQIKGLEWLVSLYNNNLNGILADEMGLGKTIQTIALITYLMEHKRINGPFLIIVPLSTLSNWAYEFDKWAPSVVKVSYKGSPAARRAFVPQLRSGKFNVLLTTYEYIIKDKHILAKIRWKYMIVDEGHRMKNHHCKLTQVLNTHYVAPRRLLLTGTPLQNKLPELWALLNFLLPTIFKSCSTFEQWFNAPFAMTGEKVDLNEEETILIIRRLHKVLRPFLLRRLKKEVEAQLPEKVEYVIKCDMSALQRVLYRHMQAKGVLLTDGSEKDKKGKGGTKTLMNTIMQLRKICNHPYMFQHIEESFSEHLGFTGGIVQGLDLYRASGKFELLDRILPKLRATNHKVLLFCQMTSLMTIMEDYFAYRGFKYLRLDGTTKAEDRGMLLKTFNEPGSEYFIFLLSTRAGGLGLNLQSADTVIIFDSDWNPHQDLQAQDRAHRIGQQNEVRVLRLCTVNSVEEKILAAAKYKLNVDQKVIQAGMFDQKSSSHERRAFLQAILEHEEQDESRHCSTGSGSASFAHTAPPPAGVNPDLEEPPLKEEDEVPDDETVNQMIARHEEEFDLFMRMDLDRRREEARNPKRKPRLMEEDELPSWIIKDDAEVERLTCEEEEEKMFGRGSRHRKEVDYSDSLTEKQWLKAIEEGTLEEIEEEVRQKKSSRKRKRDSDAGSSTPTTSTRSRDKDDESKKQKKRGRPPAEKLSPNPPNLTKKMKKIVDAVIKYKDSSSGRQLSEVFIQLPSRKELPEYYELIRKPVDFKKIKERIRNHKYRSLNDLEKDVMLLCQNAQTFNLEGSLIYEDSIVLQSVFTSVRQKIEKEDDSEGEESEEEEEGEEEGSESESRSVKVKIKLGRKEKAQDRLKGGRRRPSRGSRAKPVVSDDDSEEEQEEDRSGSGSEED

Compound | Dmax [1] | BRM HiBit Degradation Maximum (%) [2]
Cc1ncsc1-c1ccc(CNC(=O)[C@@H]2C[C@@H](O)CN2C(=O)[C@@H](NC(=O)CCCCCCCCCCCCCCC(=O)NC23CC(CCOc4cc(-c5ccccc5O)nnc4N)(C2)C3)C(C)(C)C)cc1 [Compound 50, N1-(3-(2-((3-amino-6-(2-hydroxyphenyl)pyridazin-4-yl)oxy)ethyl)bicyclo[1.1.1]pentan-1-yl)-N16-((S)-1-((2S,4R)-4-hydroxy-2-((4-(4-methylthiazol-5-yl)benzyl)carbamoyl)pyrrolidin-1-yl)-3,3-dimethyl-1-oxobutan-2-yl)hexadecanediamide; formic acid] | < 50% | B (“B” indicates maximum degradation ≥ 50%)
Cc1ncsc1-c1ccc(CNC(=O)[C@@H]2C[C@@H](O)CN2C(=O)[C@@H](NC(=O)COCCOCCNC(=O)C23CC(COc4cc(-c5ccccc5O)nnc4N)(C2)C3)C(C)(C)C)cc1 [Compound 68, (2S,4R)-1-((S)-1-(3-(((3-amino-6-(2-hydroxyphenyl)pyridazin-4-yl)oxy)methyl)bicyclo[1.1.1]pentan-1-yl)-12-(tert-butyl)-1,10-dioxo-5,8-dioxa-2,11-diazatridecan-13-oyl)-4-hydroxy-N-(4-(4-methylthiazol-5-yl)benzyl)pyrrolidine-2-carboxamide; formic acid] | < 50% | C (“C” indicates maximum degradation < 50%)
Cc1nc2cccc(NCCCCCCCCNC(=O)C34CC(COc5cc(-c6ccccc6O)nnc5N)(C3)C4)c2c(=O)n1C1CCC(=O)NC1=O (centres unmarked) [Compound 59, 3-(((3-amino-6-(2-hydroxyphenyl)pyridazin-4-yl)oxy)methyl)-N-(8-((3-(2,6-dioxopiperidin-3-yl)-2-methyl-4-oxo-3,4-dihydroquinazolin-5-yl)amino)octyl)bicyclo[1.1.1]pentane-1-carboxamide] | < 50% | C (“C” indicates maximum degradation < 50%)
Nc1nnc(-c2ccccc2O)cc1OCC12CC(C(=O)NCCOc3cccc(OCCNc4ccc5c(c4)C(=O)N(C4CCC(=O)NC4=O)C5=O)c3)(C1)C2 (centres unmarked) [Compound 82, 3-(((3-amino-6-(2-hydroxyphenyl)pyridazin-4-yl)oxy)methyl)-N-(2-(3-(2-((2-(2,6-dioxopiperidin-3-yl)-1,3-dioxoisoindolin-5-yl)amino)ethoxy)phenoxy)ethyl)bicyclo[1.1.1]pentane-1-carboxamide] | < 50% | C (“C” indicates maximum degradation < 50%)
Cc1ncsc1-c1ccc(CNC(=O)[C@@H]2C[C@@H](O)CN2C(=O)[C@@H](NC(=O)COCCOCCOCCOCC(=O)NCC23CC(COc4cc(-c5ccccc5O)nnc4N)(C2)C3)C(C)(C)C)cc1 [Compound 36, N1-((3-(((3-amino-6-(2-hydroxyphenyl)pyridazin-4-yl)oxy)methyl)bicyclo[1.1.1]pentan-1-yl)methyl)-N14-((S)-1-((2S,4R)-4-hydroxy-2-((4-(4-methylthiazol-5-yl)benzyl)carbamoyl)pyrrolidin-1-yl)-3,3-dimethyl-1-oxobutan-2-yl)-3,6,9,12-tetraoxatetradecanediamide] | < 50% | C (“C” indicates maximum degradation < 50%)
Nc1nnc(-c2ccccc2O)cc1OCC12CC(C(=O)NC3CCN(CCOc4ccc5c(c4)C(=O)N(C4CCC(=O)NC4=O)C5=O)CC3)(C1)C2 (centres unmarked) [Compound 80, 3-(((3-amino-6-(2-hydroxyphenyl)pyridazin-4-yl)oxy)methyl)-N-(1-(2-((2-(2,6-dioxopiperidin-3-yl)-1,3-dioxoisoindolin-5-yl)oxy)ethyl)piperidin-4-yl)bicyclo[1.1.1]pentane-1-carboxamide] | < 50% | C (“C” indicates maximum degradation < 50%)

The next lines start with results.

Dmax [1] | Compound | BRM HiBit Degradation Maximum (%) [2]
> 50% | Nc1nnc(-c2ccccc2O)cc1OCC12CC(C(=O)NCCOC3CN(c4ccc5c(c4)C(=O)N(C4CCC(=O)NC4=O)C5=O)C3)(C1)C2 (centres unmarked) [Compound 81, 3-(((3-amino-6-(2-hydroxyphenyl)pyridazin-4-yl)oxy)methyl)-N-(2-((1-(2-(2,6-dioxopiperidin-3-yl)-1,3-dioxoisoindolin-5-yl)azetidin-3-yl)oxy)ethyl)bicyclo[1.1.1]pentane-1-carboxamide] | B (“B” indicates maximum degradation ≥ 50%)
< 50% | Nc1nnc(-c2ccccc2O)cc1OCC12CC(CNC(=O)C3CCN(CCOc4ccc5c(c4)C(=O)N(C4CCC(=O)NC4=O)C5=O)CC3)(C1)C2 (centres unmarked) [Compound 15, N-((3-(((3-amino-6-(2-hydroxyphenyl)pyridazin-4-yl)oxy)methyl)bicyclo[1.1.1]pentan-1-yl)methyl)-1-(2-((2-(2,6-dioxopiperidin-3-yl)-1,3-dioxoisoindolin-5-yl)oxy)ethyl)piperidine-4-carboxamide] | C (“C” indicates maximum degradation < 50%)
< 50% | Nc1nnc(-c2ccccc2O)cc1OCC12CC(C(=O)N3CC(COc4cccc5c4C(=O)N(C4CCC(=O)NC4=O)C5=O)C3)(C1)C2 (centres unmarked) [Compound 87, 4-((1-(3-(((3-amino-6-(2-hydroxyphenyl)pyridazin-4-yl)oxy)methyl)bicyclo[1.1.1]pentane-1-carbonyl)azetidin-3-yl)methoxy)-2-(2,6-dioxopiperidin-3-yl)isoindoline-1,3-dione] | C (“C” indicates maximum degradation < 50%)
< 50% | Nc1nnc(-c2ccccc2O)cc1OCC12CC(C(=O)NCCOCc3cccc(COCCOc4ccc5c(c4)C(=O)N(C4CCC(=O)NC4=O)C5=O)c3)(C1)C2 (centres unmarked) [Compound 84, 3-(((3-amino-6-(2-hydroxyphenyl)pyridazin-4-yl)oxy)methyl)-N-(2-((3-((2-((2-(2,6-dioxopiperidin-3-yl)-1,3-dioxoisoindolin-5-yl)oxy)ethoxy)methyl)benzyl)oxy)ethyl)bicyclo[1.1.1]pentane-1-carboxamide; formic acid] | C (“C” indicates maximum degradation < 50%)
< 50% | Nc1nnc(-c2ccccc2O)cc1OCC12CC(C(=O)N3CCN(CCCCCOc4ccc5c(c4)C(=O)N(C4CCC(=O)NC4=O)C5=O)CC3)(C1)C2 (centres unmarked) [Compound 99, 5-((5-(4-(3-(((3-amino-6-(2-hydroxyphenyl)pyridazin-4-yl)oxy)methyl)bicyclo[1.1.1]pentane-1-carbonyl)piperazin-1-yl)pentyl)oxy)-2-(2,6-dioxopiperidin-3-yl)isoindoline-1,3-dione; formic acid] | C (“C” indicates maximum degradation < 50%)
< 50% | Nc1nnc(-c2ccccc2O)cc1OCC12CC(C(=O)NCCNc3ccc4c(c3)C(=O)N(C3CCC(=O)NC3=O)C4=O)(C1)C2 (centres unmarked) [Compound 56, 3-(((3-amino-6-(2-hydroxyphenyl)pyridazin-4-yl)oxy)methyl)-N-(2-((2-(2,6-dioxopiperidin-3-yl)-1,3-dioxoisoindolin-5-yl)amino)ethyl)bicyclo[1.1.1]pentane-1-carboxamide] | C (“C” indicates maximum degradation < 50%)
< 50% | Nc1nnc(-c2ccccc2O)cc1OCC12CC(CNC(=O)CCCCCCOc3cccc4c3C(=O)N(C3CCC(=O)NC3=O)C4=O)(C1)C2 (centres unmarked) [Compound 4, N-[[3-([[3-amino-6-(2-hydroxyphenyl)pyridazin-4-yl]oxy]methyl)bicyclo[1.1.1]pentan-1-yl]methyl]-7-[[2-(2,6-dioxopiperidin-3-yl)-1,3-dioxoisoindol-4-yl]oxy]heptanamide] | C (“C” indicates maximum degradation < 50%)
